Measured values taken from patent US9308187B2, “Adhesive patch comprising diclofenac sodium” (HISAMITSU PHARMACEUTICAL CO., INC., priority 2012, dated 2016).
Read-outs that look alike come from different tables or passages of the source.

Experiment: Solubilities in a variety of solubilizers
Format: physicochemical
Conditions: organic solvent or mixture
Protocol: Thus, in order to search for components which suppress the time-dependent crystallization of diclofenac and diclofenac sodium and which can comprise diclofenac sodium in the adhesive layer at a high concentration (3% by mass or greater) of diclofenac, the solubilities of diclofenac and diclofenac sodium were measured in a variety of solubilizers.

solubility (N-methylpyrrolidone (NMP), solvent N-methylpyrrolidone, read-out: solubility in N-methylpyrrolidone (NMP)): ≥ 100 mg/mL
solubility (dimethyl sulfoxide (DMSO), solvent dimethyl sulfoxide, read-out: solubility in dimethyl sulfoxide (DMSO)): ≥ 100 mg/mL
solubility (dipropylene glycol (DPG), solvent dipropylene glycol, read-out: solubility in dipropylene glycol (DPG)): ≥ 100 mg/mL
solubility (polyethylene glycol (PEG-400), solvent polyethylene glycol, read-out: solubility in polyethylene glycol (PEG-400)): ≥ 100 mg/mL
Compound: O=C(O)Cc1ccccc1Nc1c(Cl)cccc1Cl [diclofenac]
